Measured values as given in ChEMBL document CHEMBL3091365, “Optimization of O3-acyl kojic acid derivatives as potent and selective human neutrophil elastase inhibitors” (J Med Chem, 2013).

Experiments:
[1] = Stability of the compound in phosphate buffer at pH 7.4 at 100 uM by HPLC analysis; assay type: physicochemical; conditions: pH 7.4, 100 µM
Kallikrein-1 = Kallikrein-1 (Homo sapiens, UniProt P06870); assay: Inhibition of human kallikrein using H-Pro-Phe-Arg-AMC acetate salt as substrate measured for 30 mins by spectrophotometry
Prothrombin = Prothrombin (Homo sapiens, UniProt P00734); assay: Inhibition of human thrombin using Z-Gly-Gly-Arg-AMC.HCl as substrate measured for 30 mins by spectrophotometry
Cathepsin G = target: T1, Cathepsin G (Homo sapiens, UniProt P08311); assay: Inhibition of human cathepsin G using Suc-Ala-Ala-Pro-Phe-p-nitroanilide as substrate incubated for 30 mins prior to substrate addition measured for 30 mins by spectrophotometry
T1 sequence (P08311 whole entry): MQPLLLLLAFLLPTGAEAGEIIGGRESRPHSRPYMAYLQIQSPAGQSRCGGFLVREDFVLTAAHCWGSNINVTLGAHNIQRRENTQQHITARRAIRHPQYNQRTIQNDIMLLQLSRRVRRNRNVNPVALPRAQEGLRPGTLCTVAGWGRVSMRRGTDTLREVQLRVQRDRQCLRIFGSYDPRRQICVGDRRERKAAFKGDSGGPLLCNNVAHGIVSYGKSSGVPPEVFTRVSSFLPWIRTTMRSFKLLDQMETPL

[2] = target: Urokinase-type plasminogen activator (Homo sapiens, UniProt P00749); assay: Inhibition of human urokinase using Z-Gly-Gly-Arg-AMC.HCl as substrate measured for 30 mins by spectrophotometry
Neutrophil elastase = target: T2, Neutrophil elastase (Homo sapiens, UniProt P08246); assay: Inhibition of human neutrophil elastase using MeO-Suc-Ala-Ala-Pro-Val-AMC as substrate incubated for 30 mins prior to substrate addition measured for 30 mins by fluorescence assay
T2 sequence (P08246 whole entry): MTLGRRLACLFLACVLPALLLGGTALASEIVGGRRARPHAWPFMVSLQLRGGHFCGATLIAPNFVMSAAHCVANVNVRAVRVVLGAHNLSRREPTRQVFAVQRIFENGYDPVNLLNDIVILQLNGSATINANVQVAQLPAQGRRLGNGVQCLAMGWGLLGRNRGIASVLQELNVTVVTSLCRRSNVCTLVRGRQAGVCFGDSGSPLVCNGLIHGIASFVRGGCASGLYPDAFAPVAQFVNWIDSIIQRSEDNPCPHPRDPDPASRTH

[3] = Half life in Sprague-Dawley rat liver microsomes by HPLC analysis; assay type: ADME
[4] = Half life in human plasma by HPLC analysis; assay type: ADME, cell-free
HEK-293T = assay: Cytotoxicity against human HEK293T cells after 24 hrs by MTT assay; assay type: cell-based
Pancreatic elastase = Pancreatic elastase (Sus scrofa, UniProt P08419+P00772); assay: Inhibition of pig pancreatic elastase using MeO-Suc-Ala-Ala-Pro-Val-AMC as substrate incubated for 30 mins prior to substrate addition measured for 30 mins by fluorescence assay; assay type: protein assay
[5] = Inhibition of human chymotrypsin using Suc-Ala-Ala-Pro-Phe-7-amino-4-methylcoumarin as substrate measured for 30 mins by spectrophotometry
Trypsin = Trypsin (Homo sapiens, UniProt P07477+P07478+P35030); assay: Inhibition of human trypsin using Z-Gly-Gly-Arg-AMC.HCl as substrate measured for 30 mins by spectrophotometry; assay type: protein assay
Myeloblastin = target: T3, Myeloblastin (Homo sapiens, UniProt P24158); assay: Inhibition of human proteinase 3 using N-MeOSuc-Ala-Ala-Pro-Val-p-nitroanilide as substrate measured for 30 mins by spectrophotometry
T3 sequence (P24158 whole entry): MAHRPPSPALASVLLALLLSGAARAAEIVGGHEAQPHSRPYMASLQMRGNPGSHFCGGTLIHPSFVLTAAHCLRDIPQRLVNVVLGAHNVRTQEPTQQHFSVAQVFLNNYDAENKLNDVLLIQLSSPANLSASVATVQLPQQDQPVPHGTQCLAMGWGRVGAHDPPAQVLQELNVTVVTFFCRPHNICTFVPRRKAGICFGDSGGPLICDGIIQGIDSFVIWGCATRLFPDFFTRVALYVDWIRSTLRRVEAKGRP

NIH3T3 = assay: cells; conditions: Mus musculus, NIH3T3, 24 h
Description: Cytotoxicity against mouse NIH/3T3 cells after 24 hrs by MTT assay

Plasma = assay: Metabolic stability in human plasma by HPLC analysis; assay type: ADME, cell-free

Sequence of Kallikrein-1 (P06870 whole entry): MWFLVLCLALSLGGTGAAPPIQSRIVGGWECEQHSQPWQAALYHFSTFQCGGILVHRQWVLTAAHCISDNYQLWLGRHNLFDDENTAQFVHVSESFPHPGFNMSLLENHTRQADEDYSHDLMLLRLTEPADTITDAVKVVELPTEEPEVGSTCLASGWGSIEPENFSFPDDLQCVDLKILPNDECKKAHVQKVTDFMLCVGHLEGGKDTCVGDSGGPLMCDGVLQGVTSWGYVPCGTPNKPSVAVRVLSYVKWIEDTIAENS

Structure (SMILES)	Stability [1]	IC50 (Kallikrein-1)	IC50 (Prothrombin)	IC50 (Cathepsin G)	IC50 [2]	IC50 (Neutrophil elastase)	half-life [3]	half-life [4]	IC50 (HEK-293T)	IC50 (Pancreatic elastase)	IC50 [5]	IC50 (Trypsin)	IC50 (Myeloblastin)	IC50 (NIH3T3)	Stability (Plasma)
O=C(Oc1coc(CSc2nnc(NC(=O)C3CC3)s2)cc1=O)c1cccc(F)c1	Stable														
CC(C)(C)C(=O)Oc1cn(-c2ccccc2)c(CSc2nc3cc(C(=O)O)ccc3o2)cc1=O		> 50 µM	8.4 µM	19 µM	> 50 µM										
O=C(Oc1cn(-c2ccccc2)c(CSc2nc3ccccc3s2)cc1=O)c1ccccc1						0.28 µM									
CC(C)(C)C(=O)Oc1cn(-c2ccccc2)c(CSc2nc3ccccc3s2)cc1=O						0.96 µM									
CC(C)(C)C(=O)Oc1coc(CSc2nc3cc(C(=O)O)ccc3o2)cc1=O	Stable	> 50 µM	> 50 µM	> 100 µM	> 50 µM										
CC(C)(C)C(=O)Oc1coc(CSc2nc3ccccc3s2)cc1=O	Stable	> 50 µM	> 50 µM	> 100 µM	> 50 µM	0.11 µM	< 1 min	10.8 min	> 100 µM	> 100 µM	> 50 µM	> 50 µM	5.9 µM	> 100 µM	
CC(C)(C)C(=O)Oc1ccc(S(=O)(=O)Nc2ccccc2C(=O)NCC(=O)O)cc1	Stable	> 2 µM	> 2 µM	> 100 µM	> 2 µM		19.9 min		> 100 µM	> 50 µM	> 2 µM	> 2 µM	> 100 µM	> 100 µM	Stable
